{"source": "paper PMC12736255", "about": "“Reinvestigating Pyrrol-2-One-Based Compounds: From Antimicrobial Agents to Promising Antitumor Candidates” (Pharmaceuticals, 2025)", "key": {"EKVX": {"system": "EKVX", "experiment": "NCI-60 single-dose screen", "type": "cell-based, human", "conditions": "10^–5 M", "excerpt": "(§1) In the next step, all synthesized compounds were electronically submitted and accepted for testing to the National Cancer Institute (NCI) platform, for the single dose (10^−5 M) screening against a panel of 60 human tumor cell lines, representing leukemia, melanoma, and cancers of the lung, colon, central nervous system, ovary, kidney, prostate, and breast. The results are summarized in Table 2, with the best values highlighted in red (Figures S1–S14)."}, "NCI-H226": {"system": "NCI-H226", "experiment": "NCI-60 single-dose screen", "type": "cell-based, human", "conditions": "NCI-H226, 10^–5 M", "excerpt": "as §1"}, "A549/ATCC": {"system": "A549/ATCC", "experiment": "NCI-60 single-dose screen", "type": "cell-based", "conditions": "Homo sapiens, 10^–5 M, read-out: GI (%)", "how_it_was_run": "(§2)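 Values come from a one-concentration NCI screen in which compounds at 10^−5 M were tested on sixty human tumor cell lines.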"}, "ACHN": {"system": "ACHN", "experiment": "NCI-60 single-dose screen", "type": "cell-based", "conditions": "Homo sapiens, 10^–5 M, read-out: GI (%)", "how_it_was_run": "as §2"}, "HCT-116 [1]": {"system": "HCT-116", "experiment": "NCI-60 single-dose screen", "type": "cell-based", "conditions": "Homo sapiens; HCT-116, 10^–5 M; read-out: GI (%)", "how_it_was_run": "as §2"}, "HS 578T": {"system": "HS 578T", "experiment": "NCI-60 single-dose screen", "type": "cell-based", "conditions": "Homo sapiens, 10^–5 M, read-out: GI (%)", "how_it_was_run": "as §2"}, "MCF7": {"system": "MCF7", "experiment": "NCI-60 single-dose screen", "type": "cell-based", "conditions": "Homo sapiens; MCF7, 10^–5 M; read-out: GI (%)", "how_it_was_run": "as §2"}, "MDA-MB-435": {"system": "MDA-MB-435", "experiment": "NCI-60 single-dose screen", "type": "cell-based", "conditions": "Homo sapiens; MDA-MB-435, 10^–5 M; read-out: GI (%)", "how_it_was_run": "as §2"}, "MOLT-4 [2]": {"system": "MOLT-4", "experiment": "NCI-60 single-dose screen", "type": "cell-based", "conditions": "Homo sapiens; MOLT-4, 10^–5 M; read-out: GI (%)", "how_it_was_run": "as §2"}, "NCI/ADR-RES": {"system": "NCI/ADR-RES", "experiment": "NCI-60 single-dose screen", "type": "cell-based", "conditions": "Homo sapiens, 10^–5 M, read-out: GI (%)", "how_it_was_run": "as §2"}, "OVCAR-5": {"system": "OVCAR-5", "experiment": "NCI-60 single-dose screen", "type": "cell-based", "conditions": "Homo sapiens; OVCAR-5, 10^–5 M; read-out: GI (%)", "how_it_was_run": "as §2"}, "SK-MEL-28": {"system": "SK-MEL-28", "experiment": "NCI-60 single-dose screen", "type": "cell-based", "conditions": "Homo sapiens; SK-MEL-28, 10^–5 M; read-out: GI (%)", "how_it_was_run": "as §2"}, "SN12C": {"system": "SN12C", "experiment": "NCI-60 single-dose screen", "type": "cell-based", "conditions": "Homo sapiens, 10^–5 M, read-out: GI (%)", "how_it_was_run": "as §2"}, "SNB-19": {"system": "SNB-19", "experiment": "NCI-60 single-dose screen", "type": "cell-based", "conditions": "Homo sapiens; SNB-19, 10^–5 M; read-out: GI (%)", "how_it_was_run": "as §2"}, "T-47D [3]": {"system": "T-47D", "experiment": "NCI-60 single-dose screen", "type": "cell-based", "conditions": "Homo sapiens, T47D, 10^–5 M, read-out: GI (%)", "how_it_was_run": "as §2"}, "UACC-62": {"system": "UACC-62", "experiment": "NCI-60 single-dose screen", "type": "cell-based", "conditions": "Homo sapiens; UACC-62, 10^–5 M; read-out: GI (%)", "how_it_was_run": "as §2"}, "CCRF-CEM": {"system": "CCRF-CEM", "experiment": "NCI-60 5-dose screen", "type": "cell-based", "conditions": "Homo sapiens"}, "MOLT-4 [4]": {"system": "MOLT-4", "experiment": "NCI-60 5-dose screen", "type": "cell-based, human"}, "RPMI-8226": {"system": "RPMI-8226", "experiment": "NCI-60 5-dose screen", "type": "cell-based, human"}, "HOP-62": {"system": "HOP-62", "experiment": "NCI-60 5-dose screen", "type": "cell-based, human"}, "KM12": {"system": "KM12", "experiment": "NCI-60 5-dose screen", "type": "cell-based, human"}, "HCT-116 [5]": {"system": "HCT-116", "experiment": "NCI-60 5-dose screen", "type": "cell-based, human"}, "COLO 205": {"system": "COLO 205", "experiment": "NCI-60 5-dose screen", "type": "cell-based, human"}, "SK-MEL-2": {"system": "SK-MEL-2", "experiment": "NCI-60 5-dose screen", "type": "cell-based, human"}, "LOX IMVI": {"system": "LOX IMVI", "experiment": "NCI-60 5-dose screen", "type": "cell-based, human"}, "A498": {"system": "A498", "experiment": "NCI-60 5-dose screen", "type": "cell-based, human"}, "RXF 393": {"system": "RXF 393", "experiment": "NCI-60 5-dose screen", "type": "cell-based, human"}, "TK-10": {"system": "TK-10", "experiment": "NCI-60 5-dose screen", "type": "cell-based, human"}, "MDA-MB-231/ATCC": {"system": "MDA-MB-231/ATCC", "experiment": "NCI-60 5-dose screen", "type": "cell-based, human"}, "BT-549": {"system": "BT-549", "experiment": "NCI-60 5-dose screen", "type": "cell-based, human"}, "T-47D [6]": {"system": "T-47D", "experiment": "NCI-60 5-dose screen", "type": "cell-based, human"}, "[7]": {"conditions": "Homo sapiens, read-out: LC50 (the source's name)"}}, "note": "Marks after values point to notes of the source that are not given here.", "data": [{"smiles": "O=C1C(Nc2ccc(I)cc2)=CC(c2ccc(C(F)(F)F)cc2)N1c1ccc(I)cc1", "note": "(centres unmarked) [3e]", "values": [{"measurement": "GI (%)", "setting": "EKVX", "value": "100 ^d %"}, {"measurement": "inhibition at 10 µM", "setting": "EKVX; Homo sapiens, read-out: GI (%)", "value": 100, "unit": "%"}, {"measurement": "inhibition at 10 µM", "setting": "NCI-H226; Homo sapiens, read-out: GI (%)", "value": 100, "unit": "%"}, {"measurement": "GI (%)", "setting": "NCI-H226", "value": "100 ^e %"}, {"measurement": "inhibition at 10 µM", "setting": "A549/ATCC", "value": 30, "unit": "%"}, {"measurement": "inhibition at 10 µM", "setting": "ACHN", "value": 100, "unit": "%"}, {"measurement": "inhibition at 10 µM", "setting": "HCT-116 [1]", "value": 58, "unit": "%"}, {"measurement": "inhibition at 10 µM", "setting": "HS 578T", "value": 100, "unit": "%"}, {"measurement": "inhibition at 10 µM", "setting": "MCF7", "value": 44, "unit": "%"}, {"measurement": "inhibition at 10 µM", "setting": "MDA-MB-435", "value": 0, "unit": "%"}, {"measurement": "inhibition at 10 µM", "setting": "MOLT-4 [2]", "value": 75, "unit": "%"}, {"measurement": "inhibition at 10 µM", "setting": "NCI/ADR-RES", "value": 35, "unit": "%"}, {"measurement": "inhibition at 10 µM", "setting": "OVCAR-5", "value": 18, "unit": "%"}, {"measurement": "inhibition at 10 µM", "setting": "SK-MEL-28", "value": 31, "unit": "%"}, {"measurement": "inhibition at 10 µM", "setting": "SN12C", "value": 60, "unit": "%"}, {"measurement": "inhibition at 10 µM", "setting": "SNB-19", "value": 71, "unit": "%"}, {"measurement": "inhibition at 10 µM", "setting": "T-47D [3]", "value": 100, "unit": "%"}, {"measurement": "inhibition at 10 µM", "setting": "UACC-62", "value": 12, "unit": "%"}, {"measurement": "GI50", "setting": "CCRF-CEM", "value": 3.35, "unit": "µM"}, {"measurement": "CC50", "setting": "CCRF-CEM; read-out: LC50 (the source's name)", "value": "> 100", "unit": "µM"}, {"measurement": "TGI", "setting": "MOLT-4 [4]", "value": ">100", "unit": "µM"}, {"measurement": "GI50", "setting": "MOLT-4 [4]; Homo sapiens", "value": 2.92, "unit": "µM"}, {"measurement": "CC50", "setting": "MOLT-4 [4]; [7]", "value": "> 100", "unit": "µM"}, {"measurement": "TGI", "setting": "RPMI-8226", "value": ">100", "unit": "µM"}, {"measurement": "GI50", "setting": "RPMI-8226; Homo sapiens", "value": 5.38, "unit": "µM"}, {"measurement": "CC50", "setting": "RPMI-8226; [7]", "value": "> 100", "unit": "µM"}, {"measurement": "TGI", "setting": "HOP-62", "value": ">100", "unit": "µM"}, {"measurement": "GI50", "setting": "HOP-62; Homo sapiens", "value": "> 100", "unit": "µM"}, {"measurement": "CC50", "setting": "HOP-62; [7]", "value": "> 100", "unit": "µM"}, {"measurement": "TGI", "setting": "KM12", "value": ">100", "unit": "µM"}, {"measurement": "GI50", "setting": "KM12; Homo sapiens", "value": "> 100", "unit": "µM"}, {"measurement": "CC50", "setting": "KM12; [7]", "value": "> 100", "unit": "µM"}, {"measurement": "TGI", "setting": "HCT-116 [5]", "value": ">100", "unit": "µM"}, {"measurement": "GI50", "setting": "HCT-116 [5]; Homo sapiens", "value": 5.92, "unit": "µM"}, {"measurement": "CC50", "setting": "HCT-116 [5]; [7]", "value": "> 100", "unit": "µM"}, {"measurement": "TGI", "setting": "COLO 205", "value": ">100", "unit": "µM"}, {"measurement": "GI50", "setting": "COLO 205; Homo sapiens", "value": 4.57, "unit": "µM"}, {"measurement": "CC50", "setting": "COLO 205; [7]", "value": "> 100", "unit": "µM"}, {"measurement": "TGI", "setting": "SK-MEL-2", "value": ">100", "unit": "µM"}, {"measurement": "GI50", "setting": "SK-MEL-2; Homo sapiens", "value": "> 100", "unit": "µM"}, {"measurement": "CC50", "setting": "SK-MEL-2; [7]", "value": "> 100", "unit": "µM"}, {"measurement": "TGI", "setting": "LOX IMVI", "value": ">100", "unit": "µM"}, {"measurement": "GI50", "setting": "LOX IMVI; Homo sapiens", "value": "> 100", "unit": "µM"}, {"measurement": "CC50", "setting": "LOX IMVI; [7]", "value": "> 100", "unit": "µM"}, {"measurement": "TGI", "setting": "A498", "value": 3.56, "unit": "µM"}, {"measurement": "GI50", "setting": "A498; Homo sapiens", "value": 1.95, "unit": "µM"}, {"measurement": "CC50", "setting": "A498; [7]", "value": 6.5, "unit": "µM"}, {"measurement": "TGI", "setting": "RXF 393", "value": ">100", "unit": "µM"}, {"measurement": "GI50", "setting": "RXF 393; Homo sapiens", "value": 4.23, "unit": "µM"}, {"measurement": "CC50", "setting": "RXF 393; [7]", "value": "> 100", "unit": "µM"}, {"measurement": "TGI", "setting": "TK-10", "value": ">100", "unit": "µM"}, {"measurement": "GI50", "setting": "TK-10; Homo sapiens", "value": "> 100", "unit": "µM"}, {"measurement": "CC50", "setting": "TK-10; [7]", "value": "> 100", "unit": "µM"}, {"measurement": "TGI", "setting": "MDA-MB-231/ATCC", "value": ">100", "unit": "µM"}, {"measurement": "GI50", "setting": "MDA-MB-231/ATCC; Homo sapiens", "value": 5.36, "unit": "µM"}, {"measurement": "CC50", "setting": "MDA-MB-231/ATCC; [7]", "value": "> 100", "unit": "µM"}, {"measurement": "TGI", "setting": "BT-549", "value": ">100", "unit": "µM"}, {"measurement": "GI50", "setting": "BT-549; Homo sapiens", "value": 9.61, "unit": "µM"}, {"measurement": "CC50", "setting": "BT-549; [7]", "value": "> 100", "unit": "µM"}, {"measurement": "TGI", "setting": "T-47D [6]", "value": 7.57, "unit": "µM"}, {"measurement": "GI50", "setting": "T-47D [6]; Homo sapiens, T47D", "value": 2.74, "unit": "µM"}, {"measurement": "CC50", "setting": "T-47D [6]; Homo sapiens, T47D, read-out: LC50 (the source's name)", "value": "> 100", "unit": "µM"}]}]}
